The subject of one test is p53-AIMP2 or DX2 binding. Nature of the test: GST pull-down assay, selectivity: p53-AIMP2 or DX2 binding. To be noted: FIG. 3B. From the text: Through GST pull-down assays, more specific binding inhibitors were selected among the previously screened candidate drugs as DX2-p14/ARF binding inhibitors. That is, a p14/ARF fragment (full-length) was ligated into EcoRI and Hind II sites of pGEX-TEV vector, which is a modified vector by adding a TEV protease cleavage site to pGEX-4T1. The recombinant proteins were then expressed in E. coli strain BL21(DE3) as GST-fusion proteins. The proteins were purified by glutathione affinity chromatography.
(§1) To address direct binding between the two proteins, agarose-bead conjugated GST (negative control) or GST-target protein was incubated with cell lysate or recombinant protein in radioimmunoprecipitation assay (RIPA) buffer (NaCl, 25 mM Tris-Cl, 1% NP-40, 1% sodium deoxycholate, 0.1% SDS, protease inhibitor mixture) for 1 hour at a temperature of 4° C. for a reaction.

The subject of test [1] is H128 cells (SCLC cell line). Briefly: MTT viability of H128 cells. In kind it is cell-based, human. The settings on record: MTT assay, FIG. 7. As to the method:
(§2) By MTT assay, anticancer effects were confirmed based on viability of tumor cells. That is, cells were incubated in 0.5 mg/ml of MTT solution for 4 hours at a temperature of 37° C. for a reaction, and then, formazen products formed therefrom were dissolved in dimethyl sulfoxide (DMSO). Then, absorbance thereof was measured at 540 nm by using a spectrometer.

For test [2], the system named is human lung cancer cell lines. Nature of the test: MTT viability of various human lung cancer cell lines. Type of test: cell-based. The settings on record: 24 hours, MTT assay, FIG. 5. On the procedure:
as §2

In the next test the test system is H446 xenograft. As to the method: DK (5 month-old, N=6) mice were administered with carrier, SLCB050 (5 or 10 mg/kg), Adriamycin (1, 2.5, or 5 mg/kg), and a combination of SLCB050 and Adriamycin by intraperitoneal (i.p.) injection. After termination of the experiment of each group, mice were dissected and isolated lung tissues. For xenograft, 1×10^7 H446 cells (ATCC) were seeded in nude ice. After 4 weeks, tumor bearing mice were injected with Adriamycin, […], or a combination thereof for 6 weeks. Every weeks, tumor volume and body weight were measured.

Test [3] relates to H128 cells (SCLC cell line). Briefly: Soft agar colony formation assay in H128 cells. In kind it is cell-based, human. The settings on record: 48 hours, trypan blue staining, FIG. 6. As to the method: H128 cells which are SCLC cell lines were seeded in soft agar plates and allowed to react with SLCB050 for 48 hours, and then, the cells were examined after staining the cells with trypan blue.

Test [4] concerns DX2 and DK MEFs; primary tumor cells from DX2 and DK mice. Briefly: Reduction of anticancer drug resistance in DX2 and DK MEFs or primary tumor cells (MTT). In kind it is cell-based, mouse. As to the method: as §2
The target in a further test is T1, DX2-AIMP2 binding (Homo sapiens, UniProt Q13155).
T1 sequence (Q13155 1-251 isoform Q13155-2): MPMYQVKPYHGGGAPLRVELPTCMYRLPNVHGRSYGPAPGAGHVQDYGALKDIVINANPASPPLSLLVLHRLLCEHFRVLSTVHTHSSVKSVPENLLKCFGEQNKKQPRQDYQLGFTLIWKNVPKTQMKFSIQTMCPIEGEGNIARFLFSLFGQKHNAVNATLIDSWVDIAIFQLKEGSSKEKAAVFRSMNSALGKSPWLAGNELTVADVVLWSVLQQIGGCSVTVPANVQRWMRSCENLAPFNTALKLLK
Briefly: Protein binding assay using His-DX2 protein. To be noted: FIG. 2C. On the procedure:
Here, contransfected 293 cells were allowed to react with MG132 before immunoprecipitation analysis to prevent reduction of two proteins, and after performing SLCB050 treatment (10 μM, 6 hours), immunoprecipitation assay was performed on the cells by using Myc antibodies (DX2).
as §1

A further test concerns p53. Briefly: p53 induction in primary tumor cells (western blotting). In kind it is cell-based. To be noted: combinational treatment with Adriamycin and SLCB050, primary tumor cells from DX2 or DK mouse, FIG. 9C. As to the method:
To carry out western blot analysis, proteins were thermally inactivated in RIPA buffer (heat treatment for 7 minutes at a temperature of 95° C.), and then, the resulting proteins were applied to SDS-PAGE, followed by western blot analysis according to a known method in the art (J. Clin. Oncol. 16, 1207-1217, 1998; Nat. Rev. Cancer 2, 489-501, 2002). Antibodies used herein, e.g., HA (sc-7392), His (sc-8036), GFP (sc-9996), GST (sc-138), Actin (se-1616), and p19/ARF (sc-32748), were purchased from Santa Cruz Biochnology, anti-p14/ARF (MAB3782) was purchased from Millipore, and FLAG-M2 and anti-C-Myc (M5546) were purchased from Sigma Aldrich. In addition, anti-AIMP2 was provided from Professor. Kim, Sung-Hoon (Seoul Nat. Univ.).

“Also recorded” adds a separate entry of the source.

`CC1(C)Oc2cc3oc(=O)ccc3cc2C[C@@H]1OC(=O)/C=C/c1ccco1` [SLCB050, (7S)-(+)-3-(2-Furanyl)-acrylic acid, 8,8-dimethyl-2-oxo-6,7-dihydro-2H,8H-pyrano[3,2-g]chromen-7-yl-ester]: in the test on p53-AIMP2 or DX2 binding, the “inhibition of p53-AIMP2 or DX2 binding” value was “not on p53-AIMP2 or DX2 binding”. Further, the “viability of H128 cells” value in test [1] is given as “reduced the viability of H128 cells in a dose-dependent manner”. Moreover, in test [2], the “viability of SCLC cells” value was “very sensitive” and the “viability of p14/ARF-deficient cell lines” value is recorded as “resistant”. The “tumor growth, combination” value in the test on H446 xenograft (SLCB050 10 mg/kg with low dose Adriamycin 2.5 mg/kg, FIG. 9B) is given as “more obvious anticancer effect; also recorded: obviously suppressed tumor growth”. Also, in the test with H446 xenograft (SLCB050 10 mg/kg, three times/week, FIG. 9B), the “tumor volume, SLCB050 alone” value is recorded as “moderately suppressed”. Moreover, the “response of H446 xenograft model” value in the test with H446 xenograft (single agents, FIG. 9A) is “partially responded”. In addition, the “number of colonies / H128 cell growth in soft agar” value in test [3] is recorded as “completely suppressed the H128 cell growth; also recorded: reduced the number of colonies in a dose-dependent manner”. In addition, in test [4] (Adriamycin 0.2 μg/ml with SLCB050 10 μM, 24 hours, FIG. 8B), the “resistance to Adriamycin in primary tumor cells from DX2 and DK mice” value is listed as “resistance to Adriamycin was also abolished”. The “resistance to GN25 in DX2 and DK MEFs” value in test [4] (GN25 5 μM with SLCB050 10 or 20 μM, 6 hours, FIG. 8A) was “resistance to GN25 in DX2 and DK cells was abolished”. In addition, the “binding between DX2 and AIMP2” value at DX2-AIMP2 binding was “binding between DX2 and AIMP2 was reduced”. The “p53 induction in primary tumor cells” value with p53 is on record as “induced p53 synergistically”.
